Legend:
DIO mice = experiment: Food, kaolin and water intake in DIO mice; format: in vivo, mouse; conditions: 50 mg/kg IP, single; 18 h
Procedure: Kaolin and water intake assays. DIO mice were individually housed and allowed ad libitum access to kaolin pellets for 5 days before the start of the experiment. Mice were also provided high-fat diet and had ad libitum access to water. On the day of the experiment, kaolin and high-fat diet pellets were replaced with fresh pellets. Mice were then injected with either vehicle or BHB-Phe (50 mg/kg, IP), and high-fat diet, kaolin and water intake were measured after 18 h.

primary cardiomyocytes = experiment: Keto amino acid production in BHB-treated cardiomyocytes; format: cell-based, human; conditions: BHB 25 mM, overnight
Procedure: Human induced pluripotent stem cells (iPSCs) culture and cardiac differentiation into cardiomyocytes (CMs). Human iPSCs from healthy donors were provided by Stanford Cardiovascular Institute Biobank and cultured in the E8 medium. When iPSCs were grown to 95% confluence, the E8 medium was replaced with RPMI 1640 (GIBCO) supplemented with B27 minus insulin (GIBCO) and 5 µM CHIR-99021 (Selleck Chemicals) to start cardiac differentiation at day 0. On day 2, the medium was replaced with RPMI-B27 minus insulin. On day 3, the medium was changed to RPMI-B27 minus insulin containing 5 μM IWR-1 (Selleck Chemicals) and was maintained for 48 hours. On day 5, the medium was changed back to RPMI-B27 minus insulin and was maintained for 48 hours. Then, the cells were incubated with complete CM medium consisting of RPMI 1640 medium and B27 supplement plus insulin (GIBCO). On day 12, the medium was replaced with RPMI-B27 without D-glucose (GIBCO) for metabolic purification of CMs for 4 days. Then, the medium was changed to the complete CM medium and replaced every 2 days. Human iPSC-CMs were dissociated by TrypLE Express (GIBCO) and re-plated on Matrigel-coated 12-well plate for further experiments. Cultures were maintained at 37° C. in a humidified incubator with 5% (v/v) CO^2.
Cellular enzyme activity assays. Cells were plated in 12-well plates at 70-80% confluence. […]

CNDP2 = biological target: T1, CNDP2 (Mus musculus, UniProt Q9D1A2); experiment: In vitro synthase (condensation) activity, lysates of CNDP2-transfected HEK293T cells; format: biochemical; parameters: expressed in transfected cells; host or cells: HEK293T (lysate); conditions: role: product
T1 sequence (Q9D1A2 1-475): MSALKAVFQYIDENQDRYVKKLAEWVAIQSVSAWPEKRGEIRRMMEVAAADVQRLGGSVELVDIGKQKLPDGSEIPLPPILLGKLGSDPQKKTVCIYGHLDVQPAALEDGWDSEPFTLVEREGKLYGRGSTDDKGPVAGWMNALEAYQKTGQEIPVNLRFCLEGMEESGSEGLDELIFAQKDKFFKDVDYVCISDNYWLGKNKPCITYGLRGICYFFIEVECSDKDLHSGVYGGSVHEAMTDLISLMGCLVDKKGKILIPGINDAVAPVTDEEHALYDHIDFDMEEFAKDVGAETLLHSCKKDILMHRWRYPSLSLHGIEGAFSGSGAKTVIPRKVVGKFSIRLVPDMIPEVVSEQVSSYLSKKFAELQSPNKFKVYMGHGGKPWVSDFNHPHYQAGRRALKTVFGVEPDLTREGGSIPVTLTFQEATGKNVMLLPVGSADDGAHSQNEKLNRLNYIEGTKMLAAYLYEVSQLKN
Procedure: In vitro enzyme activity assays. HEK293T cells were transfected with GFP, CNDP2 or CNDP2-E166A using PolyFect (Qiagen 301105) according to the manufacturer's instructions. The medium was changed one day post-transfection. After an additional 24 h, the cells were harvested in PBS, lysed by sonication and centrifuged (10 min at 15,000 rpm) to remove debris. Supernatant was collected and protein concentrations were adjusted. The in vitro reactions were conducted in Eppendorf tubes with 100 μL of 1 mg/mL protein and 20 mM substrates for keto amino acid synthase activity assays and. Reactions were incubated for 1 h at 37° C. and 20 μl of 1 M HCl were added to acidify the medium and to protonate keto amino acids. Reactions were vortexed and 400 μL of ethyl acetate were added to each reaction. Reactions were vortexed for 30 s to extract keto amino acids into the organic layer and centrifuged at 4° C. for 10 min at 15,000 r.p.m. A total of 300 μl from the top layer was transferred to a new Eppendorf tube and dried down under a stream of nitrogen. The residue was re-suspended in 150 μl of an 2:1:1 mixture of acetonitrile: methanol: water. The mixture was centrifuged at 4° C. for 10 min at 15,000 r.p.m. and the supernatant was transferred to a LC-MS vial.

**Q.** How did the “food intake (kaolin/water experiment)” value (DIO mice) turn out when `CC(O)CC(=O)N[C@@H](Cc1ccccc1)C(=O)O` (stereo partly drawn) [BHB-Phe, N-betahydroxybutyryl-phenylalanine] was run?
**A.** The value was “suppressed food intake”.

**Q.** And the kaolin consumption (DIO mice)?
**A.** The kaolin consumption was “without affecting water intake or kaolin consumption”.

**Q.** What about the water intake (DIO mice) of the same compound?
**A.** The water intake was “without affecting water intake”.

**Q.** And the “keto amino acid production by cardiomyocytes” value (primary cardiomyocytes)?
**A.** The value was “minor amount”.

**Q.** What about the “product formed with BHB and phenylalanine as only substrates” value (CNDP2; BHB alone with 20 mM phenylalanine) of the same compound?
**A.** The value was “exclusive product formed”.

**Q.** What about the “products formed from combined lactate and BHB” value (CNDP2; lactate and BHB at varying concentrations, phenylalanine 20 mM) of the same compound?
**A.** Its value is “simultaneous production”.
